From paper PMC10615177 (ACS infectious diseases, 2023)
≈ marks a conversion by molar mass, not a printed value. Read-outs that look alike come from different tables or passages of the source.

Experiments:
M. tuberculosis H37Rv = M. tuberculosis H37Rv growth inhibition; format: cell-based, Mycobacterium tuberculosis; settings: Mycobacterium tuberculosis, H37RV, read-out: Mtb H37Rv MIC
in vitro [1] = settings: human
E. coli = E. coli growth inhibition; format: cell-based, Escherichia coli
M. tuberculosis HN878 = M. tuberculosis HN878 growth inhibition; format: cell-based, Mycobacterium tuberculosis; settings: for MIC: HN878, read-out: Mtb HN878 MIC
M. tuberculosis Erdman = M. tuberculosis Erdman growth inhibition; format: cell-based, Mycobacterium tuberculosis; settings: Mycobacterium tuberculosis, ERDMAN, read-out: Mtb Erdman MIC
Bacillus subtilis = assay: B. subtilis growth inhibition; format: cell-based; settings: Bacillus subtilis, read-out: Bs IC50
[2] = test system: T. cruzi Dm28c intracellular amastigotes; assay: T. cruzi intracellular amastigote inhibition; format: cell-based, Trypanosoma cruzi; settings: Trypanosoma cruzi, U2OS, read-out: T. cruzi IC50 (PAR)
[3] = test system: T. brucei bloodstream forms; assay: T. brucei bloodstream form growth inhibition; format: cell-based, Trypanosoma brucei; settings: Trypanosoma brucei, read-out: T. brucei IC50
M. smegmatis = M. smegmatis cell growth inhibition; format: cell-based, Mycobacterium smegmatis; settings: Mycolicibacterium smegmatis, read-out: Ms IC50, M. smegmatis
[4] = test system: L. donovani promastigotes; assay: L. donovani promastigote growth inhibition; format: cell-based, Leishmania donovani; settings: Leishmania donovani, read-out: L. donovani IC50
[5] = test system: T. cruzi Dm28c epimastigotes; assay: T. cruzi epimastigote growth inhibition; format: cell-based, Trypanosoma cruzi; settings: Trypanosoma cruzi, read-out: T. cruzi IC50 (EPI)
[6] = DSC of DSPG bilayers with inhibitor; format: physicochemical
in vitro [7] = settings: human; remark: listed apart in the source
[8] = test system: M. abscessus rough variant; assay: microbe, parasite or virus in culture; format: cell-based; settings: Mycobacteroides abscessus, read-out: Ma(R) MIC
[9] = target: M. tuberculosis MmpL3 (MtMmpL3) (Mycobacterium tuberculosis, UniProt P9WJV5); assay: Surface plasmon resonance binding to MmpL3
Chain of M. tuberculosis MmpL3 (MtMmpL3) (P9WJV5 whole entry): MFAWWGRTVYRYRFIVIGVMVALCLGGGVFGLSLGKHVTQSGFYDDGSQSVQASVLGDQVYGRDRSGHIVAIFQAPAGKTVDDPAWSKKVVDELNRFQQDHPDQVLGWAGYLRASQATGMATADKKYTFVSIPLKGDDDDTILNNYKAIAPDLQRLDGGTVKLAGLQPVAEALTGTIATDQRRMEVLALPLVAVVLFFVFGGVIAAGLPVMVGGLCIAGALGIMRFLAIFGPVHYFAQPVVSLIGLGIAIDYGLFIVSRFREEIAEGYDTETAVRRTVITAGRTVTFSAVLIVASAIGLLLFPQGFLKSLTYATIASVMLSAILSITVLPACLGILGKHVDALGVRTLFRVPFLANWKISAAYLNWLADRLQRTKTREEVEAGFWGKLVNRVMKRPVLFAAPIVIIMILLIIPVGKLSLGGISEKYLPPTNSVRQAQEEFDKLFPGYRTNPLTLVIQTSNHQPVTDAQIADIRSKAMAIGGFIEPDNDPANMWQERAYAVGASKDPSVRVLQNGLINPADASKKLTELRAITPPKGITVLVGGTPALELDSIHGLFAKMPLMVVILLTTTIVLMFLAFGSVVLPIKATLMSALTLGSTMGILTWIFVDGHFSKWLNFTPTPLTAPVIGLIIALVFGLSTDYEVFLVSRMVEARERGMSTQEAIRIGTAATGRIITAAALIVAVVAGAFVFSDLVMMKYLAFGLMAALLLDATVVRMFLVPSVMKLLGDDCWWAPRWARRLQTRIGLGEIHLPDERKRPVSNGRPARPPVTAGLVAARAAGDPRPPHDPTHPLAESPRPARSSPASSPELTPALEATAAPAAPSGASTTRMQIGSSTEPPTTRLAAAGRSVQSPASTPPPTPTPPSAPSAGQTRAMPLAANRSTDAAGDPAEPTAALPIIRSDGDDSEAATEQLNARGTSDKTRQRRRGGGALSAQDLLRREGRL

[10] = DSC of DMPC bilayers with inhibitor; format: physicochemical
[11] = test system: M. abscessus smooth variant; assay: microbe, parasite or virus in culture; format: cell-based; settings: Mycobacteroides abscessus, read-out: Ma(S) MIC
[12] = test system: Plasmodium falciparum asexual blood stages; assay: P. falciparum asexual blood stage; format: cell-based
[13] = Mycobacterium tuberculosis, HN878, read-out: Mtb HN878 IC50, dose-response curves
[14] = 10 wt % inhibitor, PBS pH 7.4, heating

## CCC1(NC(=O)CNCC=C(C)CCC=C(C)C)C2CC3CC(C2)CC1C3 (stereo not shown) [Compound 7c, 2-((3,7-Dimethylocta-2,6-dien-1-yl)amino)-N-(2-ethyladamantan-2-yl)acetamide]
M. tuberculosis H37Rv
  MIC: 16 µM (≈ 5.96 µg/mL)
In vitro [1]
  CC50: 7.5 ± 0.6 µM
E. coli
  Ec IC50: No inhibition
M. tuberculosis HN878; [13]
  IC50: 6.6 ± 0.2 µM
M. tuberculosis HN878; Mycobacterium tuberculosis
  MIC: 6.25 µM (≈ 2.33 µg/mL)
M. tuberculosis Erdman
  MIC: 16 µM (≈ 5.96 µg/mL)
Bacillus subtilis
  IC50: 1.9 µM
[2]
  IC50: 3.2 ± 0.2 µM
[3]
  IC50: 3.9 ± 0.3 µM
M. smegmatis
  IC50: 7.7 µM
[4]
  IC50: 44 ± 11 µM
[5]
  IC50: 14 ± 0.04 µM

## CCCCC1(NC(=O)CNCC=C(C)CCC=C(C)C)C2CC3CC(C2)CC1C3 (stereo not shown) [Compound 7e, 2-((3,7-Dimethylocta-2,6-dien-1-yl)amino)-N-(2-butyladamantan-2-yl)acetamide]
M. tuberculosis H37Rv
  MIC: 15 µM (≈ 6.01 µg/mL)
In vitro [1]
  CC50: 15 ± 0.5 µM
E. coli
  Ec IC50: No inhibition
M. tuberculosis HN878; [13]
  IC50: 13 ± 0.3 µM
M. tuberculosis HN878; Mycobacterium tuberculosis
  MIC: 12.5 µM (≈ 5.01 µg/mL)
M. tuberculosis Erdman
  MIC: 15 µM (≈ 6.01 µg/mL)
Bacillus subtilis
  IC50: 2.8 µM
[2]
  IC50: 8.8 ± 1.3 µM
[3]
  IC50: 3 ± 0.2 µM
M. smegmatis
  IC50: 17 µM
[4]
  IC50: 25 ± 14 µM
[5]
  IC50: 48 ± 0.07 µM

## CC(C)=CCCC(C)=CCNCC(=O)NC1(Cc2ccccc2)C2CC3CC(C2)CC1C3 (stereo not shown) [Compound 7g, 2-((3,7-Dimethylocta-2,6-dien-1-yl)amino)-N-(2-benzyladamantan-2-yl)acetamide]
M. tuberculosis H37Rv
  MIC: 29 µM (≈ 12.6 µg/mL)
In vitro [1]
  CC50: 7 ± 0.2 µM
E. coli
  Ec IC50: No inhibition
M. tuberculosis Erdman
  MIC: 29 µM (≈ 12.6 µg/mL)
Bacillus subtilis
  IC50: 2.3 µM
[2]
  IC50: 2.9 ± 0.3 µM
[3]
  IC50: 5.6 ± 1 µM
M. smegmatis
  IC50: 17 µM
[4]
  IC50: 27 ± 0.8 µM
[5]
  IC50: 17 ± 4 µM

## CC(C)=CCCC(C)=CCNCC(=O)NC1(c2ccccc2)C2CC3CC(C2)CC1C3 (stereo not shown) [Compound 7h, 2-((3,7-Dimethylocta-2,6-dien-1-yl)amino)-N-(2-phenyladamantan-2-yl)acetamide]
M. tuberculosis H37Rv
  MIC: 38 µM (≈ 16 µg/mL)
In vitro [1]
  CC50: 7 ± 0.4 µM
E. coli
  Ec IC50: No inhibition
M. tuberculosis Erdman
  MIC: 38 µM (≈ 16 µg/mL)
Bacillus subtilis
  IC50: 4.5 µM
[2]
  IC50: 3.4 ± 0.2 µM
[3]
  IC50: 4.1 ± 0.6 µM
M. smegmatis
  IC50: 26 µM
[4]
  IC50: 26 ± 28 µM
[5]
  IC50: 18 ± 2 µM

## CCC1(NCCNCC=C(C)CCC=C(C)C)C2CC3CC(C2)CC1C3 (stereo not shown) [Compound 8c, N-(3,7-dimethylocta-2,6-dien-1-yl)-N′-(2-ethyladamantan-2-yl)ethane-1,2-diamine]
[6]; [14]
  Tm (main transition): 51.9 °C
  ΔH: 49.9 kJ/mol
  ΔT1/2: 2.5 °C
[6]; heating
  Broadening of main transition peak ΔΤ1/2 compared to pure DSPG: 0.2–1.6 °C
M. tuberculosis H37Rv
  MIC: 6.8 µM (≈ 2.44 µg/mL)
In vitro [7]
  viability at 2 µM: 85%
  viability at 20 µM: 43%
[8]
  MIC: 10.7 µM (≈ 3.84 µg/mL)
In vitro [1]
  CC50: 2.5 ± 0.3 µM
E. coli; Escherichia coli, read-out: Ec IC50
  IC50: 18 µM
M. tuberculosis HN878; [13]
  IC50: 2 to 3 µM
M. tuberculosis HN878; Mycobacterium tuberculosis
  MIC: 1.6 µM (≈ 0.574 µg/mL)
M. tuberculosis HN878; read-out: Mtb HN878 IC50, dose-response curves
  IC50: 1.9 ± 0.06 µM
M. tuberculosis Erdman
  MIC: 6.8 µM (≈ 2.44 µg/mL)
Bacillus subtilis
  IC50: 4.3 µM
[2]
  IC50: 1.3 ± 0.06 µM
[9]
  koff: 0.841 s⁻¹
  kon: 4710 M⁻¹ s⁻¹
[9]; 1:1 model, 1:1 binding model, from ratio of rate constants
  Kd: 180 µM
[9]; 2-state, two-state model, from rate constants
  Kd: 190 µM
[9]; two-state model
  ka1: 5473 M⁻¹ s⁻¹
  ka2: 0.006994 s⁻¹
  kd1: 1.284 s⁻¹
  kd2: 0.03012 s⁻¹
[3]
  IC50: 1.4 ± 0.2 µM
[10]; [14]
  Tm (main transition): 16.9 °C
  ΔH: 24.0 kJ/mol
  ΔT1/2: 2.0 °C
[10]; heating
  Decrease of Tm compared to DMPC without inhibitor: ~6.6 °C
M. smegmatis
  IC50: 4 µM
[4]
  IC50: 2.1 ± 0.4 µM
[5]
  IC50: 8 ± 2 µM
[11]
  MIC: 22 µM (≈ 7.89 µg/mL)
[12]; Plasmodium falciparum, read-out: PfABS IC50 (μM ± S.E.), asexual blood stages
  IC50: 0.16 ± 0.07 µM
[12]; versus SQ109 1.6 μM
  Increased potency against PfABS compared to SQ109: ~ 10 fold
